Series [1] has as its system transformed human vaginal epithelial cells (Episkin). In words: Cell survival test (MTT) with three-dimensional vaginal epithelium reconstructed in vitro. It counts as cell-based. The procedure: The potential skin irritation on the vaginal epithelium was evaluated in vitro by means of a cytotoxicity assay: cell survival test with three-dimensional vaginal epithelium reconstructed in vitro (MTT test). The three-dimensional cell model used in the test consists of 0.5 cm^2 diameter units of cultures of transformed human vaginal epithelial cells, maintained for 5 days in a chemically defined culture medium and in contact with air on inert polycarbonate filters. The model was purchased from Episkin® (Lyons, lot 16-HVE-015).
Sodium lauryl sulphate (SLS) dissolved at 0.5% by weight in a phosphate buffer (Euroclone) was used as a positive control. The phosphate buffer was used on its own as a negative control. Exposure took place for 1 and 6 hours at about 37° C., 5% CO2. At the end of exposure, the epithelium was washed with phosphate buffer. The epithelium was incubated for 3 h at 37° C. with a 1 mg/ml solution of MTT (3-[4,5-dimethylthiazol-2-yl]-2,5-diphenyltetrazoliumbromide).
The solution was subsequently removed and replaced with isopropanol, with […]
successive hours of incubation at room temperature. 2 aliquots of each epithelium were transferred into a 96-well plate for the absorbance reading, which was carried out at a wavelength of 570 nm with a Tecan Sunrise remote colorimeter, equipped with a plate reader.
Through the creation of a dose-response curve, the cytotoxicity data obtained with the MTT test (Table 5) make it possible to determine the theoretical value of ET50, that is, the time in minutes that induces a 50% reduction in cell viability in the epithelium compared to untreatedcells.

For the next series, the system named is bacterial vaginosis. To be noted: at 3 months; cited from earlier work.

On to `CCCCCCCCCCCCOS(=O)(=O)[O-].[Na+]` [Positive control, Sodium lauryl sulphate], for which the “% mean cell viability 1 h treatment” value in series [1] (MTT, 1 h exposure, reconstructed human vaginal epithelium) was 8.26%. Moreover, in series [1] (MTT, 6 h exposure, reconstructed human vaginal epithelium), the “% mean cell viability 6 h treatment” value is 6.54%. In series [1] (time that induces a 50% reduction in cell viability compared to untreated cells), this molecule returned an ET50 of 32.70 min.

Take `Cc1ncc([N+](=O)[O-])n1CCO` [metronidazole]: in the series with bacterial vaginosis, the risk of relapse is reported as 33 % of women.

The values are drawn from patent US11857570B2, “Natural composition for use in gynecology” (Organicare LLC, priority 2017, dated 2024).
